Data on one compound can be found in paper PMC12010937, “Evaluation of FXR Activity in Pollutants Identified in Sewage Sludge and Subsequent in Vitro and in Vivo Characterization of Metabolic Effects of Triphenyl Phosphate” (Environmental Health Perspectives, 2025).

Where “and” joins values, the source holds several entries; their conditions need not be identical. Identical values can stand only once. Entries after “also recorded” stand apart in the source; their conditions may differ.

In series [1] the target is T1, human FXR-LBD (GST-FXR-LBD) (Homo sapiens, UniProt Q96RI1).
T1 construct: the human FXR-LBD (residues 234–472) was expressed as a GST fusion protein GST-FXR-LBD; made in house; host or cells: E. coli BL21(DE3)
T1 sequence (Q96RI1 234-472 isoform Q96RI1-2): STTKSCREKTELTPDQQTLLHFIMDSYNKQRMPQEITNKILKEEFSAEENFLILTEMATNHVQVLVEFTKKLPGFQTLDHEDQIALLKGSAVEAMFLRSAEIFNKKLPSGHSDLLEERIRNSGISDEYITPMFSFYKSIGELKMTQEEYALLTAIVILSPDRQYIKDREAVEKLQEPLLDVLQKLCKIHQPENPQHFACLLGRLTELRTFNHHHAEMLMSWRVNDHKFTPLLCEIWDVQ
Kind of series: HTRF coactivator recruitment assay, agonist mode. The class given is biochemical. (Time-resolved FRET reads energy transfer from a long-lived donor to a nearby acceptor.)

For series [2], the target named is T2, FXR (pCDNA3.1-hFXR, FXRE-luc) (Homo sapiens, UniProt Q96RI1).
T2 construct: host or cells: HEK 293T
T2 sequence (Q96RI1 1-486): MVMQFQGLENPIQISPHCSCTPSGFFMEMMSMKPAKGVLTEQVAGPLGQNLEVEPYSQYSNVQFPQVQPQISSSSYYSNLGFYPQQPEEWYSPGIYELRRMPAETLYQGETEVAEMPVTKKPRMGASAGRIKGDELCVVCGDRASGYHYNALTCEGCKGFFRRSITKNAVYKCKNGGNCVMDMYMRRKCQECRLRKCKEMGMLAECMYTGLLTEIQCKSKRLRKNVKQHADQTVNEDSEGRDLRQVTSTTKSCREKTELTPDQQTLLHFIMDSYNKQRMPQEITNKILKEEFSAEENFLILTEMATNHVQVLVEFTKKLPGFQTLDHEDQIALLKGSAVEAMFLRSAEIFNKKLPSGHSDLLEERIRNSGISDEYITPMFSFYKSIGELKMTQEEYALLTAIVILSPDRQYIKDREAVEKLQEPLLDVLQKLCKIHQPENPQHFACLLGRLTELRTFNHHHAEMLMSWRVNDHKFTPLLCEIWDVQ
Briefly: cell-based. The class given is cell-based.

Another series relates to C57BL/6N mice. Kind of series: Oil Red O lipid staining of liver sections. The class given is in vivo. The note with it: TPHP exposure groups. Here is the method:
Male C57BL/6N mice (8 wk of age) were purchased from Beijing Vital River Laboratory Inc. and acclimated to the environment for 2 wk before they were used for experiments. The environment was maintained at 22°C, in a 12-h light/dark cycle with 50%–60% relative humidity and fed standard chow diets. Because the male mice are more sensitive to metabolic disease than female mice and the estrous cycle of female mice may induce variability to the metabolic phenotypes,[50] only male mice were used in this study. Animals were randomly assigned to control or TPHP treatment groups (five mice per group). Mice were exposed to corn oil (control) purchased from Sigma-Aldrich (C8267) or TPHP (dissolved in corn oil) at 10mg/kg or 50mg/kg body weight (BW) by daily oral gavage for 35 d. The administered volume was 5mL/kg BW. The TPHP corn oil solutions for administration were prepared by dissolving the TPHP in corn oil, and the solutions were stored at −20°C and freshly prepared each week. BW was measured every other day during the dosing period. At the end of experiments, the mice were anesthetized with isoflurane, then blood was collected from the retro-orbital sinus via orbital puncture, and then the mice were euthanized by cervical dislocation. […]

The next series concerns PPARγ. On the set-up: method as in PMID 34340181. The note with it: in vitro assays and in silico molecular docking; cited from earlier work.
For another series, the system named is PXR. As to conditions: in vitro assays and in silico molecular docking; cited from earlier work.

In the case of `O=P(Oc1ccccc1)(Oc1ccccc1)Oc1ccccc1` [TPHP, triphenyl phosphate], in series [1], the “Relative activity, agonist mode” value came out at 0.00%. Moreover, half-maximal inhibition in series [2] (IC50) required 27.4 µM. Moreover, the “Relative luciferase activity (%)” value in series [2] (0.01 μM, dose-response, replicates) is 85.51% and 90.10% and 106.89%; in series [2] (0.1 μM, dose-response, replicates), 104.74% and 89.81%; in series [2] (0.5 μM, dose-response, replicates) it was 73.91% and 74.66%; in series [2] (1 μM, dose-response, replicates) it was 77.48% and 70.96%; in series [2] (5 μM, dose-response, replicates), 51.88% and 54.98% and 76.88%; in series [2] (10 μM compound in the presence of 50 μM CDCA, DMSO 0%, 50 μM CDCA 100%, HEK 293T, replicates), 2.5% and 7.4% and 17.9%. The “Relative luciferase activity (%)” value was 46.34% and 52.21% in series [2] (10 μM, dose-response, replicates); -6.4% and -7.6% and -3.9% in series [2] (25 μM compound in the presence of 50 μM CDCA, DMSO 0%, 50 μM CDCA 100%, HEK 293T, replicates); 2.58% and 9.91% and 5.01% in series [2] (25 μM, dose-response, replicates); -21.44% and -22.90% and -18.55% in series [2] (50 μM, dose-response, replicates). Further, in series [2] (10 μM and 25 μM, in the presence of 50 μM CDCA, HEK 293T), the “Luciferase activity compared with DMSO control (in words)” value is recorded as “significantly less luciferase activity; also recorded: lowest luciferase activity”. The “Rate of FXR inhibition at the maximum exposure concentration” value in series [2] (HEK 293T DLR assay, maximum exposure concentration) turned out to be 120.96%. Further, the activity at 0.1 µM in series [2] (HEK-293T, read-out: Relative luciferase activity (%), 0.1 μM, dose-response, replicates) came out at 87.5%. Further, the activity at 0.5 µM in series [2] (HEK-293T, read-out: Relative luciferase activity (%), 0.5 μM, dose-response, replicates) was determined as 82.3%. The activity at 1 µM in series [2] (HEK-293T, read-out: Relative luciferase activity (%), 1 μM, dose-response, replicates) amounted to 63.9%. Also, the activity at 10 µM in series [2] (HEK-293T, read-out: Relative luciferase activity (%), 10 μM, dose-response, replicates) is 39.7%. Moreover, the “Oil Red O staining intensity of liver sections vs control (in words)” value with C57BL/6N mice was “higher”. Moreover, the “PPARγ activity reported (in words)” value in the series on PPARγ was “agonists”. In addition, the “PXR activity reported (in words)” value in the series on PXR is on record as “agonists”.
